Data published in ChEMBL document CHEMBL5724914, “Linking interpersonal differences in gut microbiota composition and drug biotransformation activity” (2024).

How the values were obtained:
[1] = human gut metagenome, 24 h, 2 µM
[2] = human gut metagenome, 24 h, 2 µM; remark: listed apart in the source
[3] = human gut metagenome, 24 h, 2 µM; remark: listed apart in the source
[4] = human gut metagenome, 24 h, 2 µM; remark: listed apart in the source
[5] = (§1) The drug is tested on WLS-038 corresponding to human gut metagenome with ENA study accession number: PRJEB37062 and ENA sample accession number: ERS12561745 for biotransformation under anaerobic condition. The drug concentrations were measured over 9 timepoints collected between 0 and 24 hours of incubation by liquid-chromatography-coupled mass spectrometry (LC–MS); details: 2 µM
[6] = as §1, with “Z-017” for “WLS-038”, “mouse” for “human”, “ERS12561816” for “ERS12561745”; details: 2 µM
[7] = human gut metagenome, 24 h, 2 µM; remark: listed apart in the source
[8] = human gut metagenome, 24 h, 2 µM; remark: listed apart in the source
[9] = as §1, with “Z-002” for “WLS-038”, “rabbit” for “human”, “ERS12561802” for “ERS12561745”; details: 2 µM
[10] = as §1, with “WLS-069” for “WLS-038”, “ERS12561748” for “ERS12561745”; details: 2 µM
[11] = human gut metagenome, 24 h, 2 µM; remark: listed apart in the source
[12] = human gut metagenome, 24 h, 2 µM; remark: listed apart in the source
[13] = as §1, with “Z-025” for “WLS-038”, “rabbit” for “human”, “ERS12561824” for “ERS12561745”; details: 2 µM
[14] = human gut metagenome, 24 h, 2 µM; remark: listed apart in the source
[15] = human gut metagenome, 24 h, 2 µM; remark: listed apart in the source
[16] = as §1, with “Z-001” for “WLS-038”, “mouse” for “human”, “ERS12561801” for “ERS12561745”; details: 2 µM
[17] = human gut metagenome, 24 h, 2 µM; remark: listed apart in the source
[18] = as §1, with “WLS-039” for “WLS-038”, “ERS12561746” for “ERS12561745”; details: 2 µM
[19] = human gut metagenome, 24 h, 2 µM; remark: listed apart in the source
[20] = as §1, with “Z-030” for “WLS-038”, “mouse” for “human”, “ERS12561829” for “ERS12561745”; details: 2 µM
Further: call rule not given here.

Structure (SMILES) | Bacterial Biotransformation [1] | Bacterial Biotransformation [2] | Bacterial Biotransformation [3] | Bacterial Biotransformation [4] | Bacterial Biotransformation [5] | Bacterial Biotransformation [6] | Bacterial Biotransformation [7] | Bacterial Biotransformation [8] | Bacterial Biotransformation [9] | Bacterial Biotransformation [10] | Bacterial Biotransformation [11] | Bacterial Biotransformation [12] | Bacterial Biotransformation [13] | Bacterial Biotransformation [14] | Bacterial Biotransformation [15] | Bacterial Biotransformation [16] | Bacterial Biotransformation [17] | Bacterial Biotransformation [18] | Bacterial Biotransformation [19] | Bacterial Biotransformation [20]
COc1ccnc(C[S+]([O-])c2nc3ccc(OC(F)F)cc3[nH]2)c1OC (stereo not given) [PANTOPRAZOLE] | Compound metabolized | Compound metabolized | Compound metabolized | Compound metabolized | Compound metabolized | Compound metabolized | Compound metabolized | Compound metabolized | Compound NOT metabolized | Compound metabolized | Compound NOT metabolized | Compound metabolized | Compound metabolized | Compound metabolized | Compound metabolized | Compound NOT metabolized | Compound metabolized | Compound metabolized | Compound metabolized | Compound metabolized
CN(CCOc1ccc(CC2SC(=O)NC2=O)cc1)c1ccccn1.O=C(O)/C=C\C(=O)O (stereo not given) [ROSIGLITAZONE MALEATE] | Compound NOT metabolized | Compound metabolized | Compound NOT metabolized | Compound NOT metabolized | Compound NOT metabolized | Compound NOT metabolized | Compound metabolized | Compound NOT metabolized | Compound NOT metabolized | Compound metabolized | Compound NOT metabolized | Compound metabolized | Compound metabolized | Compound metabolized | Compound metabolized | Compound NOT metabolized | Compound NOT metabolized | Compound NOT metabolized | Compound NOT metabolized | Compound NOT metabolized
CC(C)c1nc(N(C)S(C)(=O)=O)nc(-c2ccc(F)cc2)c1/C=C/[C@@H](O)C[C@@H](O)CC(=O)[O-].CC(C)c1nc(N(C)S(C)(=O)=O)nc(-c2ccc(F)cc2)c1/C=C/[C@@H](O)C[C@@H](O)CC(=O)[O-].[Ca+2] [ROSUVASTATIN CALCIUM] | Compound NOT metabolized | Compound metabolized | Compound metabolized | Compound NOT metabolized | Compound NOT metabolized | Compound NOT metabolized | Compound metabolized | Compound metabolized | Compound NOT metabolized | Compound metabolized | Compound metabolized | Compound metabolized | Compound NOT metabolized | Compound metabolized | Compound metabolized | Compound NOT metabolized | Compound NOT metabolized | Compound metabolized | Compound NOT metabolized | Compound NOT metabolized
O=C(O)c1cc(/N=N/c2ccc(S(=O)(=O)Nc3ccccn3)cc2)ccc1O [SULFASALAZINE] | Compound metabolized | Compound metabolized | Compound metabolized | Compound metabolized | Compound metabolized | Compound metabolized | Compound metabolized | Compound metabolized | Compound metabolized | Compound metabolized | Compound metabolized | Compound metabolized | Compound metabolized | Compound metabolized | Compound metabolized | Compound metabolized | Compound metabolized | Compound metabolized | Compound metabolized | Compound metabolized
C=CC[C@@H]1/C=C(\C)C[C@H](C)C[C@H](OC)[C@H]2O[C@@](O)(C(=O)C(=O)N3CCCC[C@H]3C(=O)O[C@H](/C(C)=C/[C@@H]3CC[C@@H](O)[C@H](OC)C3)[C@H](C)[C@@H](O)CC1=O)[C@H](C)C[C@@H]2OC.O [TACROLIMUS] | Compound metabolized | Compound metabolized | Compound metabolized | Compound metabolized | Compound metabolized | Compound NOT metabolized | Compound metabolized | Compound metabolized | Compound metabolized | Compound metabolized | Compound metabolized | Compound metabolized | Compound NOT metabolized | Compound metabolized | Compound NOT metabolized | Compound NOT metabolized | Compound metabolized | Compound metabolized | Compound metabolized | Compound NOT metabolized
COc1ccc(CN2CCNCC2)c(OC)c1OC.Cl.Cl [TRIMETAZIDINE DIHYDROCHLORIDE] | Compound NOT metabolized | Compound NOT metabolized | Compound NOT metabolized | Compound NOT metabolized | Compound NOT metabolized | Compound NOT metabolized | Compound NOT metabolized | Compound NOT metabolized | Compound NOT metabolized | Compound NOT metabolized | Compound NOT metabolized | Compound NOT metabolized | Compound NOT metabolized | Compound NOT metabolized | Compound NOT metabolized | Compound NOT metabolized | Compound NOT metabolized | Compound NOT metabolized | Compound NOT metabolized | Compound NOT metabolized
CN1[C@@H]2CC[C@H]1C[C@@H](OC(=O)c1c[nH]c3ccccc13)C2 [TROPISETRON] | Compound NOT metabolized | Compound metabolized | Compound NOT metabolized | Compound NOT metabolized | Compound NOT metabolized | Compound NOT metabolized | Compound NOT metabolized | Compound NOT metabolized | Compound NOT metabolized | Compound NOT metabolized | Compound NOT metabolized | Compound NOT metabolized | Compound NOT metabolized | Compound NOT metabolized | Compound NOT metabolized | Compound NOT metabolized | Compound NOT metabolized | Compound NOT metabolized | Compound NOT metabolized | Compound NOT metabolized
